Literature values in patent publication US20250064896A1, “METHODS, COMPOSITIONS AND USES FOR TREATING CANCER BY PROVIDING MEDICATIONS THAT INDUCE TARGETED TUMOR CELL MITOSIS BEFORE PROVIDING CHEMOTHERAPY OR RADIATION AND KITS THEREFOR” (MAISON AMORI OQVPO LLC, priority 2022, published 2025).
Like-named read-outs stand apart in the source and are kept apart here.

Assays:
[1] = test system: metastatic hormone sensitive prostate cancer (MHSPC); details: for median actuarial freedom from Castrate Resistant Prostate Cancer (CRPC): p=0.04; for overall survival: p=0.2
[2] = test system: prostate cancer
[3] = test system: prostate cancer (salvage setting); details: goserelin provided on the first day of radiation
[4] = test system: locally advanced prostate cancer
[5] = test system: locally advanced prostate cancer; details: goserelin 3.6 mg every 4 weeks and flutamide 250 mg tid, 2 months before and concurrent with RT
[6] = test system: locally advanced prostate cancer; details: for overall survival at 5 years: P=0.73
[7] = in vivo
[8] = test system: serum concentrations of LH and testosterone
[9] = test system: testosterone levels
[10] = test system: testosterone levels; details: week 2 from initiation of leuprolide; injections once every 3 months; advanced prostate cancer
[11] = in vivo; remark: listed apart in the source
[12] = test system: metastatic adenocarcinoma of the prostate
[13] = patients randomized to bicalutamide versus placebo
[14] = arm I: irradiation plus goserelin started in the last week of radiation

CC(=O)O[C@@]12CO[C@@H]1C[C@H](O)[C@@]1(C)C(=O)[C@H](O)C3=C(C)[C@@H](OC(=O)[C@H](O)[C@@H](NC(=O)OC(C)(C)C)c4ccccc4)C[C@@](O)([C@@H](OC(=O)c4ccccc4)[C@H]21)C3(C)C [docetaxel]
overall survival versus LHRH therapy alone ([1]; docetaxel given at the beginning of LHRH therapy, MHSPC): significantly longer
median actuarial freedom from Castrate Resistant Prostate Cancer (CRPC) ([1]; docetaxel started 1-6 days from LHRH initiation): 51 months
overall survival ([1]; docetaxel started 1-6 days from initiation of LHRH agonist): 72 months
median actuarial freedom from Castrate Resistant Prostate Cancer (CRPC) ([1]; docetaxel started >14 days from LHRH initiation): 18 months
overall survival ([1]; docetaxel started >14 days from initiation of LHRH agonist): 57 months

CC(C)C[C@H](NC(=O)[C@@H](COC(C)(C)C)NC(=O)[C@H](Cc1ccc(O)cc1)NC(=O)[C@H](CO)NC(=O)[C@H](Cc1c[nH]c2ccccc12)NC(=O)[C@H](Cc1cnc[nH]1)NC(=O)[C@@H]1CCC(=O)N1)C(=O)N[C@@H](CCCNC(=N)N)C(=O)N1CCC[C@H]1C(=O)NNC(N)=O [goserelin]
10-year absolute survival rate ([2]; arm 1 versus control arm 39%, p=0.002): 49%
5-year absolute survival rate [2, 14]: 72%
9-year absolute survival rate [2, 14]: 62%
survival, ADT in the salvage setting [3]: survival benefit
10-year overall survival ([4]; combined treatment, radiotherapy alone 39.8%, p=0.0004): 58.1%
survival, hormonal therapy added to radiation compared to radiation alone ([4]; external irradiation plus goserelin): survival benefit
five-year overall survival ([4]; irradiation plus goserelin from first day for 3 years, antiandrogen for 1 month, radiotherapy alone 62%, p=0.0002): 78%
survival, combined ADT with RT versus RT alone [5]: no significant difference
overall survival at 5 years ([6]; 24 months of goserelin after 4 months of goserelin and flutamide with RT): 80.0%
overall survival between the two treatment arms ([6]; 24 months of goserelin versus no further treatment): not significantly different
overall survival at 5 years ([6]; no further treatment after 4 months of goserelin and flutamide with RT): 78.5%

CCNC(=O)[C@@H]1CCCN1C(=O)[C@H](CCCNC(=N)N)NC(=O)[C@H](CC(C)C)NC(=O)[C@@H](CC(C)C)NC(=O)[C@H](Cc1ccc(O)cc1)NC(=O)[C@H](CO)NC(=O)[C@H](Cc1c[nH]c2ccccc12)NC(=O)[C@H](Cc1c[nH]cn1)NC(=O)[C@@H]1CCC(=O)N1 [leuprolide]
leuprolide blood levels, intranasal versus intravenous route [7]: much lower
duration of elevation of testosterone levels ([8]; after LHRH analogue application): 7 days
duration of increase in relative LH values ([8]; after LHRH analogue injection): 7 days
maximum testosterone level ([8]; day 2 after LHRH analogue application): 145±13%
maximum relative LH value ([8]; day 2 after LHRH analogue injection, means±standard error, 16 patients with advanced prostatic cancer): 345±108%
median testosterone levels remained above castrate levels (0.5 ng/ml) until ([9]; after initiation of leuprolide): 21 days
median testosterone levels increase from baseline ([9]; by day 3 after initiation of monthly leuprolide, P<0.001): 65%
median testosterone level ([9]; day 3 after initiation of leuprolide): 6.30 ng/mL
testosterone levels higher compared to baseline [10]: about 50%

C[C@]12CC[C@H]3[C@@H](CCC4=CC(=O)CC[C@@]43C)[C@@H]1CC[C@@H]2O [testosterone]
half-life [11]: 170 h
patients with unfavorable subjective and/or objective responses ([12]; 52 patients treated with exogenous testosterone daily): 87%
serious morbidity or mortality, seemingly due to the testosterone administration ([12]; eight cases of 52 patients): 15%

CC(O)(CS(=O)(=O)c1ccc(F)cc1)C(=O)Nc1ccc(C#N)c(C(F)(F)F)c1 (centres unmarked) [bicalutamide]
erectile dysfunction compared to placebo [13]: non-statistically significant difference
